Reference: PMC6308159 (Frontiers in Public Health, 2018)
Where “and” joins values, the source holds several entries; their conditions need not be identical. Equal values may be shown once. Read-outs that look alike come from different tables or passages of the source.

How the values were obtained:
[1] = test system: primary human endothelial colony-forming cells (ECFCs), cord blood clones
[2] = test system: primary human endothelial colony-forming cells (ECFCs), cord blood clones; assay: cells; details: read-out: IC50, range between individual ECFC clones
[3] = cited from earlier work
in vitro = details: human
[4] = test system: polyclonal ECFC line CB002; assay type: cell-based, human; details: 0.390625 μM; 48 h
[5] = read-out: IC50, range between individual ECFC clones

Which “effect on ECFC viability / toxicity” value [1] does the source give for `CC1=C(C/C=C(\C)CCC[C@H](C)CCC[C@H](C)CCCC(C)C)C(=O)c2ccccc2C1=O` [Phytonadione, phytonadione, reference compound] here?
The value was “not toxic”.

What does the source list for `[Cl-].[Cl-].[Zn+2]` [ZnCl2, Zinc Chloride]?
cytotoxicity [1]: cytotoxic; effect on viability [1]: did not affect viability

What does the source list for `CC1=CC(=O)c2ccccc2C1=O` [Menadione, 2-methyl-1,4-naphthoquinone, reference compound]?
IC10, range between individual ECFC clones [1]: 5.6 to 19.0 µM; average IC10 (mean and standard deviation) [1]: 11.5 ± 5.03 µM; cells killed [1]: 100%; live cells [1]: < 50%; IC50 [2]: 8 to 26.3 µM; blood level ([3]; observed in a clinical setting): 500 to 2000 nM; level found in the blood ([3]; volunteers after ingestion of 10 mg menadione sodium bisulfite tablets): 20 nM; viability at 10 µM (in vitro): 100%

What does the source list for `O.[Cl][Cd][Cl]` [CdCl2, Cadmium Chloride Hydrate]?
IC10, range between individual ECFC clones [1]: 4.2 to 9.3 µM; average IC10 (mean and standard deviation) [1]: 6.7 ± 1.85 µM; cells killed [1]: ~100%; cytotoxicity [1]: not cytotoxic; IC50 [1, 5]: 12.3 to 18 µM

Which results are given for `O=[As][O-].[Na+]` [NaAsO2, Sodium (meta)arsenite]?
raw CFDA fluorescence per well [4]: 4689 and 4248 and 2550 and 2844 and 2369 and 3435; IC10, range between individual ECFC clones [1]: 1.1 to 5.0 µM; average IC10 (mean and standard deviation) [1]: 2.4 ± 1.16 µM; cells killed [1]: 100%; IC50 ([1]; read-out: IC50 ± SD): 7.5 ± 4.7 µM

For `O.O.O.O.O.O.O.O=[As]([O-])([O-])O.[Na+].[Na+]` [Na2HAsO4, Sodium arsenate dibasic heptahydrate], which cells killed [1] is on record?
Its cells killed is 0%.

And the “effect on ECFC viability / toxicity” value [1]?
The value was “no effect”.

Which results are given for `CCC[CH2][Sn]([Cl])([CH2]CCC)[CH2]CCC` [TBT, Tributyltin Chloride]?
IC10, range between individual ECFC clones [1]: 0.2 to 0.5 µM; average IC10 (mean and standard deviation) [1]: 0.3 ± 0.11 µM; IC50 [1, 5]: 1.2 to 2.3 µM
